Source: BindingDB's records for doi:10.1016/j.bmcl.2013.01.049 (Dongguk University-Seoul, 2013)

Target: T1, Receptor-type tyrosine-protein kinase FLT3 (Homo sapiens, UniProt P36888)
T1 sequence (P36888 whole entry): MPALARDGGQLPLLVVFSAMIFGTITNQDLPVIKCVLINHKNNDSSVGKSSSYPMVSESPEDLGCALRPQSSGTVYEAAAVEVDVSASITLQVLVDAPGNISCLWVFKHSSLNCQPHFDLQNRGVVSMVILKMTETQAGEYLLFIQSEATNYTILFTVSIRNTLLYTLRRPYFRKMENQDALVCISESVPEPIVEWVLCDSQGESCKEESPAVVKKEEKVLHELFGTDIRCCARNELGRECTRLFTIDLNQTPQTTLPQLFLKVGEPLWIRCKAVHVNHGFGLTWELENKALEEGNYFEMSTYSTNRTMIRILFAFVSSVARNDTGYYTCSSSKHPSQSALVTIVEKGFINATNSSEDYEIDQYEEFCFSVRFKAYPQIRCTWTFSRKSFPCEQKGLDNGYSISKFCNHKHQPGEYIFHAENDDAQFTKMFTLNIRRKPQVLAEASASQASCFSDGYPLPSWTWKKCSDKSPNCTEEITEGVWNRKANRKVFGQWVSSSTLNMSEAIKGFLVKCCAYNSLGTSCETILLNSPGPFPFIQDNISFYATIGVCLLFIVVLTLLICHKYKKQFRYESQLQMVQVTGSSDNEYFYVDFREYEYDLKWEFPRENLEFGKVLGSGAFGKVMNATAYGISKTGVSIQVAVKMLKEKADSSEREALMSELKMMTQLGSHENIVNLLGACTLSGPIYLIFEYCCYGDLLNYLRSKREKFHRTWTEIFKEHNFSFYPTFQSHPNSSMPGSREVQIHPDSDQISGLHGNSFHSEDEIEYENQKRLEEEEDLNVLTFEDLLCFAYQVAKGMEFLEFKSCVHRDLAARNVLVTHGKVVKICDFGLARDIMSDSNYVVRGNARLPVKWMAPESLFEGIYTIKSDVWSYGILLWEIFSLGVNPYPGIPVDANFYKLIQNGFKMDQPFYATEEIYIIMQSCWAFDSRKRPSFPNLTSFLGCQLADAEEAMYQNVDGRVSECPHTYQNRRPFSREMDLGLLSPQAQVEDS
Test: Inhibition of recombinant FLT3 (unknown origin) by TR-FRET assay

Row | Structure (SMILES) | IC50
1 | O=c1cc(O)cc2oc(-c3ccc(O)c(O)c3)c(OC3O[C@H](CO)[C@@H](O)[C@H](O)[C@@H]3O)c(O)c1-2 (stereo partly drawn) | > 10 µM
2 | O=c1cc(O)cc2oc(-c3ccc(O)c(O)c3)c(O[C@@H]3O[C@H](CO)[C@H](O)[C@H](O)[C@H]3O)c(O)c1-2 [2-(3,4-Dihydroxy-phenyl)-5,7-dihydroxy-3-((2S,4R,5R)-3,4,5-trihydroxy-6-hydroxymethyl-tetrahydro-pyran-2-yloxy)-chromen-4-one] | > 10 µM
3 | O=c1cc(O)cc2oc(-c3ccc(O)c(O)c3)c(O[C@@H]3O[C@H](CO)[C@@H](O)[C@H](O)[C@H]3O)c(O)c1-2 [Quercetin 3-O-beta-D-glucoside] | > 10 µM
